# According to patent publication US7365096B2, “Methods for selectively inhibiting Janus tyrosine kinase 3 (Jak3)” (Board of Regents, The University of Texas System, priority 2002, dated 2008):
# Where “and” joins values, the source holds several entries; their conditions need not be identical. Equal values may be shown once. Entries after “also recorded” stand apart in the source; their conditions may differ.
# Key:
# [1] = tested on: LEW or third-party heart allografts; test: Adoptive transfer of T cells from tolerant recipients into irradiated ACI heart allograft recipients; type: in vivo, rat
# Description: ACI rat recipients of LEW kidney allografts were treated for 14 days with NC1153 delivered by daily oral gavage. […] ACI rat recipients of LEW kidney allografts were treated for 7 days and thereafter 3×/week up to 90 days with 160 mg/kg NC1153 delivered by daily oral gavage. […] The mechanism of tolerance was examined when irradiated (400 rads) ACI recipients of LEW heart allografts were adoptively transferred with 30×10^6 purified T cells from tolerant recipients.
# Lck = Lck (Homo sapiens, UniProt P06239); test: Tyrosine phosphorylation of activated Lck in YT cells; type: cell-based; set-up: Cellular extracts were immunoprecipitated with anti-Fyn or anti-Lck antibodies; endogenous in cells; host or cells: YT cells; details: 1-100 μM, 2 hours
# Stat5a/b = test: IL-2 activated Stat5a/b tyrosine phosphorylation in YT cells (Western blot); type: cell-based, human; details: phospho-Western blots
# Description: (§1) Solubilization of membrane proteins, immunoprecipitation, and Western blot analysis. Frozen cell pellets were thawed on ice and solubilized in 1% TX-100 lysis buffer (10^8 cells/ml) and clarified by centrifugation, as previously described.^16 For human T-cells, supernates were incubated rotating end over end for 2 hours at 4° C. with either 5 μl/ml polyclonal rabbit antisera raised against peptides derived from the unique COOH-termini of Jak3 (amino acid [a.a.] 1104-1124), carboxyl termini of human Stat5a (a.a. 775-794) or Stat5b (a.a. 777-787).^26 Ab and immunoprecipitated proteins were captured by incubation for 30 minutes with Protein A-Sepharose beads (Pharmacia, Piscataway, N.J.), sedimented for purification, and eluted by boiling in 2×SDS-sample buffer (20% Glycerol, 10% 2-Mercaptoethanol, 4.6% SDS, 0.004% Bromophenol blue in 0.125 M Tris pH 6.8) for 4 minutes. For phosphoMapk assays, approximately 25 μg of total cell lysate was dissociated in SDS-sample buffer and separated on 10% (all others on 7.5%) SDS-PAGE under reducing conditions. […]
# adapter protein Shc = test: Shc tyrosine phosphorylation (phospho-Western blot); type: cell-based; details: phospho-Western blots
# Description: as §1
# LEW kidney allografts = test: Rat kidney allograft survival (LEW donors to ACI recipients); type: in vivo
# Source text: Rat Kidney Transplants. Adult male ACI (RT1^a) and Lewis (LEW; RT1^1) rats (160-200 g) obtained from Harlan Sprague-Dawley (Indianapolis, Ind.) were cared for according to the guidelines of the Animal Welfare Committee. Rats were housed in light- and temperature-controlled quarters and given chow and water ad libitum. Kidneys were transplanted heterotopically from LEW donors to ACI recipients using a standard microsurgical technique of Ono and Lindsey^28. […] A control group of recipients remained untreated. […] Graft survival time was defined as animal survival of life supporting kidney transplant.
# To test the in vivo effects, recipients of kidney allografts were treated with 649641P (NC1153) for 7 days beginning immediately after transplantation. […] A mean survival time (MST) and SD was calculated for each group from 5-6 experiments.
# A MST and SD were calculated for each group from 5-6 experiments. The combination index (CI) values were calculated.
# p44/42 Erk1/2 = test: IL-2-mediated p44/42 Erk1/2 phosphorylation in PHA-activated T cells; type: cell-based; details: human T-cells, 2 hours drug
# Description: as §1
# Sequence of Lck (P06239 whole entry): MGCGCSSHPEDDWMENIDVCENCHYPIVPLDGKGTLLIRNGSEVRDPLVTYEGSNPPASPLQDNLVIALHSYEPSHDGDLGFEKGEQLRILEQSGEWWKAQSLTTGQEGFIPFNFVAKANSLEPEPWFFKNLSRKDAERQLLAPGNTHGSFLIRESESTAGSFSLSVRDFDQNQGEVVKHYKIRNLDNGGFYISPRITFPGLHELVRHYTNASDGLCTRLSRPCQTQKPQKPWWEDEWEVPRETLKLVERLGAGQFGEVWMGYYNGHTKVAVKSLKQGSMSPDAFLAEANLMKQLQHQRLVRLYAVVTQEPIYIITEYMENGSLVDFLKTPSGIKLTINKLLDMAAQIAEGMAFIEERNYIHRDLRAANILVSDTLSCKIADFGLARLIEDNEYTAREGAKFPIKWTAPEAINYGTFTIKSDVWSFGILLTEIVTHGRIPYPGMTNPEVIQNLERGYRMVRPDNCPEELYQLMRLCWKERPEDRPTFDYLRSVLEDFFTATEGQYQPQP
smiles,measurement,setting,value
CN(C)CC1CCCCCCCCCC(CN(C)C)C1=O (mixture of isomers) [649641P (NC1153)],rejection of LEW heart allografts after transfer of tolerant T cells,"[1]; irradiated (400 rads) ACI recipients, 30×10^6 T cells from NC1153-tolerant recipients, irradiated controls 15±1.0",40.0±15.0 days
same,rejection of third-party heart allografts after transfer of tolerant T cells,"[1]; irradiated ACI recipients, T cells from NC1153-tolerant recipients, n=2",12±1.0 days
same,activity (tyrosine phosphorylation) of Lck,Lck,no effect; also recorded: does not block the activity; also recorded: did not inhibit
same,tyrosine phosphorylation of Stat5a/b,Stat5a/b,inhibited tyrosine phosphorylation
same,tyrosine phosphorylation of adapter protein Shc,adapter protein Shc,inhibited tyrosine phosphorylation
same,MST ± SD,LEW kidney allografts; 649641P (NC1153) 2.5 mg/kg/d i.v. × 7 days alone,9.5 ± 1.4 days and 9.5 ± 1.5 days
same,MST ± SD,LEW kidney allografts; 649641P (NC1153) 5.0 mg/kg/d i.v. × 7 days alone,12.2 ± 1.5 days
same,MST ± SD,LEW kidney allografts; 649641P (NC1153) 10.0 mg/kg/d i.v. × 7 days alone,18.8 ± 1.1 days
same,MST ± SD,LEW kidney allografts; 649641P (NC1153) 20.0 mg/kg/d i.v. × 7 days alone,24.8 ± 6.6 days and 24.8 ± 4.6 days
same,MST ± SD,LEW kidney allografts; 649641P (NC1153) 40.0 mg/kg/d p.o. × 7 days alone,12.3 ± 1.26 days
same,MST ± SD,LEW kidney allografts; 649641P (NC1153) 80.0 mg/kg/d p.o. × 7 days alone,18.6 ± 5.32 days
same,MST ± SD,LEW kidney allografts; 649641P (NC1153) 160.0 mg/kg/d p.o. × 7 days alone,31.0 ± 3.9 days
same,MST,LEW kidney allografts; 649641P (NC1153) 240 mg/kg/day p.o. for 7 days,47.8 ± 19.59 days
same,rat kidney allograft survival,"LEW kidney allografts; given alone, i.v. or oral gavage, 7 days",prolonged rat kidney allograft survival in a dose-dependent fashion
same,IL2-mediated Erk1/2 phosphorylation / activation,p44/42 Erk1/2,blocks IL2-mediated Erk1/2 activation; also recorded: inhibited tyrosine phosphorylation
